# Experimental data published in ChEMBL document CHEMBL1201862, “PubChem BioAssay data set” (2004).
#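 Exposure lasted 48 hours, with cells grown in 96-well plates and compounds tested at five concentrations. GI50: concentration for 50% inhibition of growth.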 Active and inactive are the calls of the source. Rule as the data show it: active = GI50 up to about 1.1 µM and inactive = higher.
# Tests used:
# Assay in all cases: NCI anticancer screen, dose series, 48 h
# 786-0 = test system: 786-0
# A498 = test system: A498
# A549 = test system: A549
# ACHN = test system: ACHN
# BT-549 = test system: BT-549
# CAKI-1 = test system: CAKI-1
# CCRF-CEM = test system: CCRF-CEM
# COLO 205 = test system: COLO 205
# DU-145 = test system: DU-145
# EKVX = test system: EKVX
# HCC 2998 = test system: HCC 2998
# HCT-116 = test system: HCT-116
# HCT-15 = test system: HCT-15
# HL-60 = test system: HL-60
# HOP-62 = test system: HOP-62
# HOP-92 = test system: HOP-92
# HT-29 = test system: HT-29
# Hs-578T = test system: Hs-578T
# IGROV-1 = test system: IGROV-1
# K562 = test system: K562
# KM12 = test system: KM12
# LOX IMVI = test system: LOX IMVI
# M14 = test system: M14
# MCF7 = test system: MCF7
# MDA-MB-231 = test system: MDA-MB-231
# MDA-MB-435 = test system: MDA-MB-435
# MDA-N = test system: MDA-N
# MOLT-4 = test system: MOLT-4
# Malme-3M = test system: Malme-3M
# NCI-H226 = test system: NCI-H226
# NCI-H23 = test system: NCI-H23
# NCI-H460 = test system: NCI-H460
# NCI-H522 = test system: NCI-H522
# NCI/ADR-RES = test system: NCI/ADR-RES
# OVCAR-3 = test system: OVCAR-3
# OVCAR-4 = test system: OVCAR-4
# OVCAR-5 = test system: OVCAR-5
# OVCAR-8 = test system: OVCAR-8
# PC-3 = test system: PC-3
# RPMI-8226 = test system: RPMI-8226
# RXF 393 = test system: RXF 393
# SF-268 = test system: SF-268
# SF-295 = test system: SF-295
# SF-539 = test system: SF-539
# SK-MEL-28 = test system: SK-MEL-28
# SK-MEL-2 = test system: SK-MEL-2
# SK-MEL-5 = test system: SK-MEL-5
# SK-OV-3 = test system: SK-OV-3
# SN12C = test system: SN12C
# SNB-19 = test system: SNB-19
# SNB-75 = test system: SNB-75
# SR = test system: SR
# SW-620 = test system: SW-620
# T47D = test system: T47D
# TK-10 = test system: TK-10
# U-251 = test system: U-251
# UACC-257 = test system: UACC-257
# UACC-62 = test system: UACC-62
# UO-31 = test system: UO-31
compound,measurement,setting,value
C=CC1=C(C)c2cc3[nH]c(c4c5nc(cc6[nH]c(cc1n2)c(C)c6CC)C(C)=C5C(=O)[C@@H]4C(=O)OC)[C@@H](CCC(=O)O)[C@@H]3C,GI50,786-0,7.71 µM (inactive)
same,GI50,A498,2.55 µM (inactive)
same,GI50,A549,3.95 µM (inactive)
same,GI50,ACHN,2.27 µM (inactive)
same,GI50,BT-549,2.31 µM (inactive)
same,GI50,CAKI-1,9.51 µM (inactive)
same,GI50,CCRF-CEM,1.21 µM (inactive)
same,GI50,COLO 205,4.28 µM (inactive)
same,GI50,DU-145,33.8 µM (inactive)
same,GI50,EKVX,10.2 µM (inactive)
same,GI50,HCC 2998,2 µM (inactive)
same,GI50,HCT-116,8.71 µM (inactive)
same,GI50,HCT-15,2.49 µM
same,GI50,HL-60,1.37 µM (inactive)
same,GI50,HOP-62,8.95 µM (inactive)
same,GI50,HOP-92,1.63 µM (inactive)
same,GI50,HT-29,8.43 µM (inactive)
same,GI50,Hs-578T,3.66 µM (inactive)
same,GI50,IGROV-1,7.24 µM (inactive)
same,GI50,K562,1.38 µM (inactive)
same,GI50,KM12,4.83 µM (inactive)
same,GI50,LOX IMVI,6.22 µM (inactive)
same,GI50,M14,3.66 µM (inactive)
same,GI50,MCF7,2.98 µM (inactive)
same,GI50,MDA-MB-231,11.2 µM (inactive)
same,GI50,MDA-MB-435,2.24 µM (inactive)
same,GI50,MDA-N,5.27 µM (inactive)
same,GI50,MOLT-4,1 µM (active)
same,GI50,Malme-3M,12.2 µM (inactive)
same,GI50,NCI-H226,6.01 µM (inactive)
same,GI50,NCI-H23,2.21 µM (inactive)
same,GI50,NCI-H460,2.81 µM (inactive)
same,GI50,NCI-H522,7.57 µM (inactive)
same,GI50,NCI/ADR-RES,9.02 µM (inactive)
same,GI50,OVCAR-3,2.04 µM (inactive)
same,GI50,OVCAR-4,2.54 µM (inactive)
same,GI50,OVCAR-5,3.41 µM (inactive)
same,GI50,OVCAR-8,3.52 µM (inactive)
same,GI50,PC-3,3.62 µM (inactive)
same,GI50,RPMI-8226,2 µM (inactive)
same,GI50,RXF 393,1.29 µM (inactive)
same,GI50,SF-268,9.82 µM (inactive)
same,GI50,SF-295,2.12 µM (inactive)
same,GI50,SF-539,1.86 µM (inactive)
same,GI50,SK-MEL-28,1.64 µM (inactive)
same,GI50,SK-MEL-2,4.13 µM (inactive)
same,GI50,SK-MEL-5,1.42 µM (inactive)
same,GI50,SK-OV-3,4.06 µM (inactive)
same,GI50,SN12C,5.45 µM (inactive)
same,GI50,SNB-19,4.09 µM (inactive)
same,GI50,SNB-75,2.11 µM (inactive)
same,GI50,SR,0.634 µM (active)
same,GI50,SW-620,2.5 µM (inactive)
same,GI50,T47D,5.81 µM (inactive)
same,GI50,TK-10,2.82 µM (inactive)
same,GI50,U-251,3.06 µM (inactive)
same,GI50,UACC-257,5.32 µM (inactive)
same,GI50,UACC-62,2.16 µM (inactive)
same,GI50,UO-31,2.33 µM (inactive)
C=C1C(=O)O[C@H]2[C@@H](O)[C@H](C)CCC/C(C)=C/CC[C@@]3(C)O[C@@H]3C[C@@H]12,GI50,786-0,3.61 µM (inactive)
same,GI50,A498,12.4 µM (inactive)
same,GI50,A549,20.5 µM (inactive)
same,GI50,ACHN,2.16 µM (inactive)
same,GI50,BT-549,3.3 µM (inactive)
same,GI50,CAKI-1,2.33 µM (inactive)
same,GI50,CCRF-CEM,1.07 µM (active)
same,GI50,COLO 205,3.93 µM (inactive)
same,GI50,DU-145,6.03 µM (inactive)
same,GI50,EKVX,4.22 µM (inactive)
same,GI50,HCC 2998,13.2 µM (inactive)
same,GI50,HCT-116,3.19 µM (inactive)
same,GI50,HCT-15,1.92 µM
same,GI50,HL-60,2.47 µM (inactive)
same,GI50,HOP-62,22.3 µM (inactive)
same,GI50,HOP-92,2.59 µM (inactive)
same,GI50,HT-29,5.45 µM (inactive)
same,GI50,Hs-578T,14.7 µM (inactive)
same,GI50,IGROV-1,3.5 µM (inactive)
same,GI50,K562,4.06 µM (inactive)
same,GI50,KM12,16.8 µM (inactive)
same,GI50,LOX IMVI,4.43 µM (inactive)
same,GI50,M14,3.94 µM (inactive)
same,GI50,MCF7,7.18 µM (inactive)
same,GI50,MDA-MB-231,12.9 µM (inactive)
same,GI50,MDA-MB-435,7.5 µM (inactive)
same,GI50,MDA-N,11.2 µM (inactive)
same,GI50,MOLT-4,2.29 µM (inactive)
same,GI50,Malme-3M,11.5 µM (inactive)
same,GI50,NCI-H226,1.53 µM (inactive)
same,GI50,NCI-H23,8.75 µM (inactive)
same,GI50,NCI-H460,5.89 µM (inactive)
same,GI50,NCI-H522,2.68 µM (inactive)
same,GI50,NCI/ADR-RES,6.43 µM (inactive)
same,GI50,OVCAR-3,11.3 µM (inactive)
same,GI50,OVCAR-4,7.16 µM (inactive)
same,GI50,OVCAR-5,15.7 µM (inactive)
same,GI50,OVCAR-8,4.38 µM (inactive)
same,GI50,PC-3,13.7 µM (inactive)
same,GI50,RPMI-8226,8.38 µM (inactive)
same,GI50,RXF 393,2.85 µM (inactive)
same,GI50,SF-268,8.22 µM (inactive)
same,GI50,SF-295,18.1 µM (inactive)
same,GI50,SF-539,2.59 µM (inactive)
same,GI50,SK-MEL-28,13.7 µM (inactive)
same,GI50,SK-MEL-2,18.1 µM (inactive)
same,GI50,SK-MEL-5,11.8 µM (inactive)
same,GI50,SK-OV-3,18.5 µM (inactive)
same,GI50,SN12C,5.77 µM (inactive)
same,GI50,SNB-19,16.7 µM (inactive)
same,GI50,SNB-75,15.1 µM (inactive)
same,GI50,SR,1.88 µM (inactive)
same,GI50,SW-620,10.2 µM (inactive)
same,GI50,T47D,3.4 µM (inactive)
same,GI50,TK-10,1.86 µM (inactive)
same,GI50,U-251,8.73 µM (inactive)
same,GI50,UACC-257,9.16 µM (inactive)
same,GI50,UACC-62,9.79 µM (inactive)
same,GI50,UO-31,5.47 µM (inactive)
